Some test systems named below: NCI-H460 lung; HT29 colon; ACHN renal; OVCAR-3 ovarian; SNB-19 CNS; UACC-257 melanoma; K-562 leukemia; HL-60(TB) leukemia; UO-31 renal; HCC-2998 colon.
Common to all, as to test: DTP human tumour cell line panel, 48 h

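Test compounds were applied to cells in 96-well plates for 48 hours at 5 doses. Here, GI50 denotes the concentration required for 50% inhibition of growth. TGI marks complete inhibition of growth.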 Where only a bound is given, the exact number is not on record here.

One may read the GI50 as the concentration giving 50% growth inhibition. One may read the TGI as the concentration at which net growth stops. Read a high TGI as less potent growth arrest.

On to `CC[C@]12C=CCN3CC[C@]4(C(=C(C(=O)OC)C1)Nc1ccccc14)[C@@H]32`, for which the GI50 with NCI-H460 lung was 4.11 µM; in the assay with HT29 colon, 3.41 µM; in the assay with ACHN renal, 2.07 µM; in the assay with OVCAR-3 ovarian it was 2.45 µM; with SNB-19 CNS, 10.7 µM; with UACC-257 melanoma it was 5.06 µM. For the same compound, the GI50 in the assay on K-562 leukemia is 3.08 µM; in the assay with HL-60(TB) leukemia, 3.18 µM; with UO-31 renal, 4.11 µM; in the assay on HCC-2998 colon, 11.4 µM. The concentration for total growth inhibition (TGI) amounted to 16.3 µM with NCI-H460 lung; 12.8 µM in the assay on HT29 colon; 4.54 µM with ACHN renal; 7.51 µM with OVCAR-3 ovarian; 23.3 µM with SNB-19 CNS; 26.5 µM in the assay on UACC-257 melanoma. Also, the TGI stood at 15.1 µM in the assay with K-562 leukemia, 11.5 µM in the assay on HL-60(TB) leukemia, 16.5 µM with UO-31 renal and 24.9 µM with HCC-2998 colon.

Regarding `O=C(Nc1ccc(Cl)cc1)C(=O)C1=C(O)c2ccccc2OC1`, the concentration for total growth inhibition (TGI) in the assay with NCI-H460 lung, with HT29 colon, in the assay with ACHN renal, in the assay with OVCAR-3 ovarian, in the assay on SNB-19 CNS and in the assay on UACC-257 melanoma was greater than 100 µM throughout. Also, the TGI with K-562 leukemia, in the assay with HL-60(TB) leukemia, in the assay with UO-31 renal and with HCC-2998 colon was greater than 100 µM each time.

For the compound `S=c1nc(/C=C/c2ccc(Cl)c(Cl)c2)[nH][nH]1`, the TGI in the assay on NCI-H460 lung, in the assay with HT29 colon, with ACHN renal, with OVCAR-3 ovarian, in the assay with SNB-19 CNS and with UACC-257 melanoma was greater than 100 µM in each case. In addition, the TGI in the assay with K-562 leukemia, in the assay on HL-60(TB) leukemia, in the assay with UO-31 renal and with HCC-2998 colon was greater than 100 µM each time.

For the compound `c1ccc(COc2ccc(Nc3ncnc4ccc(-c5ccco5)cc34)cc2)cc1`, the GI50 in the assay with NCI-H460 lung was 2.84 µM; in the assay with HT29 colon it was 4.52 µM; with ACHN renal, 6.75 µM; in the assay with OVCAR-3 ovarian, 5.4 µM; in the assay with SNB-19 CNS, 12.7 µM; in the assay with UACC-257 melanoma it was 7.85 µM. For the same compound, the GI50 in the assay on K-562 leukemia was 9.74 µM; in the assay on HL-60(TB) leukemia it was 7.03 µM; with UO-31 renal, 4.76 µM; in the assay with HCC-2998 colon, 10.6 µM. In addition, the total growth inhibition concentration (TGI) in the assay on NCI-H460 lung was greater than 25 µM; in the assay with HT29 colon it was 16.1 µM; in the assay with ACHN renal, greater than 25 µM; in the assay with OVCAR-3 ovarian, 12.8 µM; in the assay with SNB-19 CNS, greater than 25 µM; in the assay on UACC-257 melanoma, 24.4 µM. Also, the concentration for total growth inhibition (TGI) with K-562 leukemia was greater than 25 µM; with HL-60(TB) leukemia it was 19.2 µM; in the assay on UO-31 renal it was greater than 22.1 µM; with HCC-2998 colon it was greater than 25 µM.

For `CCOC(=O)/C(=C/c1c(-c2ccccc2)[nH]c2ccccc12)C(=O)c1ccc(Cl)cc1`, the GI50 in the assay with NCI-H460 lung is 3.03 µM; in the assay with HT29 colon it was 3.96 µM; in the assay on ACHN renal, 3.62 µM; with OVCAR-3 ovarian, 3.35 µM; in the assay on SNB-19 CNS, 7.96 µM; in the assay on UACC-257 melanoma, 6.49 µM. For the same compound, the GI50 is 3.42 µM in the assay with K-562 leukemia, 1.99 µM with HL-60(TB) leukemia, 3.86 µM in the assay with UO-31 renal and 3.94 µM in the assay with HCC-2998 colon. Moreover, the concentration for total growth inhibition (TGI) in the assay on NCI-H460 lung is 10.3 µM; in the assay with HT29 colon, greater than 100 µM; in the assay on ACHN renal it was greater than 100 µM; in the assay with OVCAR-3 ovarian it was greater than 100 µM; with SNB-19 CNS, greater than 100 µM; in the assay with UACC-257 melanoma, greater than 100 µM. Also, the TGI is greater than 100 µM with K-562 leukemia, 7.59 µM in the assay with HL-60(TB) leukemia, greater than 100 µM with UO-31 renal and greater than 100 µM in the assay with HCC-2998 colon.

Turning to `COc1ccccc1NS(=O)(=O)c1cc(C(C)(C)C)ccc1OCCOc1ccc(C(C)(C)C)cc1S(=O)(=O)Nc1ccccc1OC`, the total growth inhibition concentration (TGI) in the assay with NCI-H460 lung, in the assay with HT29 colon, in the assay on ACHN renal, in the assay on OVCAR-3 ovarian, with SNB-19 CNS and in the assay on UACC-257 melanoma was greater than 100 µM throughout. The concentration for total growth inhibition (TGI) with K-562 leukemia, in the assay with HL-60(TB) leukemia, in the assay on UO-31 renal and with HCC-2998 colon was greater than 100 µM throughout.

In the case of `COc1cc2nc(-c3ccc(Cl)cc3)cc(OCCCN3CCC(O)CC3)c2cc1OC`, the GI50 in the assay on NCI-H460 lung was 0.955 µM; in the assay on HT29 colon, 0.7 µM; in the assay on ACHN renal it was 2.43 µM; in the assay on OVCAR-3 ovarian it was 3.24 µM; in the assay with SNB-19 CNS it was 3.19 µM; in the assay on UACC-257 melanoma it was 2.06 µM. In addition, the GI50 is 1.63 µM in the assay on K-562 leukemia, 4.27 µM in the assay on HL-60(TB) leukemia, 1.72 µM in the assay on UO-31 renal and 1.95 µM in the assay on HCC-2998 colon. The TGI in the assay on NCI-H460 lung is 14 µM; in the assay with HT29 colon, 3.81 µM; in the assay with ACHN renal, 10.4 µM; with OVCAR-3 ovarian it was 28.3 µM; in the assay with SNB-19 CNS, 16.9 µM; with UACC-257 melanoma, 4.56 µM. Also, the TGI in the assay on K-562 leukemia was 6.75 µM; in the assay on HL-60(TB) leukemia, 18.7 µM; in the assay with UO-31 renal it was 5.97 µM; in the assay on HCC-2998 colon it was 5.93 µM.

Take `Nc1cc2c3c(cccc3c1)C(=O)N(CCN1CCN(CCN3C(=O)c4cccc5cc(N)cc(c45)C3=O)CC1)C2=O`: the total growth inhibition concentration (TGI) in the assay with NCI-H460 lung, with HT29 colon, in the assay on ACHN renal, in the assay with OVCAR-3 ovarian, in the assay on SNB-19 CNS and with UACC-257 melanoma was greater than 100 µM throughout. The TGI with K-562 leukemia, in the assay with HL-60(TB) leukemia, in the assay with UO-31 renal and with HCC-2998 colon was greater than 100 µM in each case.

On to `C[C@@H](Oc1cc(-n2cnc3ccc(OCC4CCN(C)CC4)cc32)sc1C(N)=O)c1ccccc1C(F)(F)F`, for which the GI50 with NCI-H460 lung is 0.0872 µM; in the assay with HT29 colon, 0.0721 µM; in the assay on ACHN renal, 0.801 µM; in the assay with OVCAR-3 ovarian it was 0.0801 µM; in the assay with SNB-19 CNS, 0.163 µM; with UACC-257 melanoma, 0.179 µM. Further, the 50% growth inhibitory concentration (GI50) was 0.0832 µM in the assay on K-562 leukemia, 0.0708 µM in the assay on HL-60(TB) leukemia, 0.948 µM in the assay on UO-31 renal and 0.0859 µM with HCC-2998 colon. For the same compound, the concentration for total growth inhibition (TGI) with NCI-H460 lung was found to be 3.1 µM; in the assay on HT29 colon, 2.63 µM; in the assay on ACHN renal it was 4.52 µM; with OVCAR-3 ovarian it was 2.86 µM; with SNB-19 CNS it was 4.56 µM; in the assay with UACC-257 melanoma, 4.51 µM. Also, the TGI in the assay on K-562 leukemia came out at 3.31 µM; in the assay on HL-60(TB) leukemia, 1.08 µM; in the assay with UO-31 renal it was 4.33 µM; in the assay on HCC-2998 colon, 2.98 µM.
